Data published in PubChem BioAssay (NCI).
“And” between values parts separate entries of the source, which are not always exact repeats. Equal values may be shown once.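 Test compounds were applied to cells in 96-well plates for 48 hours at 5 doses. Here, GI50 denotes the concentration required for 50% inhibition of growth. TGI denotes the concentration required for complete inhibition of growth.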

Assays:
Assay in all cases: NCI anticancer screen, dose series, 48 h
ACHN renal = system: ACHN renal
CAKI-1 renal = system: CAKI-1 renal
HCT-15 colon = system: HCT-15 colon
MDA-MB-231 breast = system: MDA-MB-231 breast
NCI-H226 lung = system: NCI-H226 lung
SK-MEL-2 melanoma = system: SK-MEL-2 melanoma
SK-MEL-28 melanoma = system: SK-MEL-28 melanoma
SNB-19 CNS = system: SNB-19 CNS
UACC-62 melanoma = system: UACC-62 melanoma
UO-31 renal = system: UO-31 renal

SMILES | TGI (ACHN renal) | GI50 (CAKI-1 renal) [µM] | TGI (CAKI-1 renal) | GI50 (HCT-15 colon) [µM] | TGI (HCT-15 colon) | GI50 (MDA-MB-231 breast) [µM] | TGI (MDA-MB-231 breast) | GI50 (NCI-H226 lung) [µM] | TGI (NCI-H226 lung) [µM] | GI50 (SK-MEL-2 melanoma) [µM] | TGI (SK-MEL-2 melanoma) | GI50 (SK-MEL-28 melanoma) [µM] | TGI (SK-MEL-28 melanoma) | TGI (SNB-19 CNS) [µM] | GI50 (UACC-62 melanoma) [µM] | TGI (UACC-62 melanoma) | TGI (UO-31 renal) | GI50 (ACHN renal) [µM] | GI50 (SNB-19 CNS) [µM] | GI50 (UO-31 renal) [µM]
O=S(=O)(/C=C/C=C/S(=O)(=O)c1ccccc1)c1ccccc1 | 2.06 µM and 2.05 µM | 1.04 | 2.54 µM and 2.25 µM | 0.189 | 2.7 µM and 0.795 µM | 1.87 | 3.37 µM and 3.73 µM | 1.24 | 4.85 | 1.4 | 5.68 µM and 3.47 µM | 2.49 | 1.96 µM and 5.79 µM | 31.2 | 0.352 | 2.43 µM and 1.88 µM | 2.92 µM and 3.32 µM | – | – | –
C/C(=C\c1ccn(-c2ccc(N)c(C(F)(F)F)c2)n1)[C@@H]1C[C@@H]2O[C@]2(C)CCC[C@H](C)[C@H](O)[C@@H](C)C(=O)C(C)(C)[C@@H](O)CC(=O)O1 | > 29.2 µM | 0.0429 | > 32.5 µM | 0.0109 | > 27.8 µM | 0.134 | > 25 µM | 1.99 | > 32.5 | 0.0241 | 10.4 µM | 3.87 | > 32.5 µM | > 32.5 | 0.0599 | > 16.2 µM | > 32.5 µM | 0.0268 | 0.0287 | 0.055
O=C1C2CC3C(CC2C(=O)[N]1[Sn]([c]1ccccc1)([c]1ccccc1)[c]1ccccc1)C1(Cl)C(Cl)=C(Cl)C3(Cl)C1(Cl)Cl (stereo unspecified) | 0.243 µM | 0.12 | 0.275 µM | 0.054 | 0.209 µM | 0.127 | 0.37 µM | 0.184 | 0.437 | 0.167 | 0.351 µM | 0.144 | 0.295 µM | 0.344 | 0.118 | 0.288 µM | 0.212 µM | 0.112 | 0.163 | 0.0743
N=c1nc(N)c2cc3c(N)nc(=N)c3cc12 | > 100 µM | – | 41.6 µM | – | > 100 µM | – | 8.09 µM | – | 44.7 | – | > 46.5 µM | – | 10.7 µM | > 100 | – | 23.5 µM | 34.5 µM | – | – | –
COc1cccc(-c2nn(-c3ccccc3)cc2-c2ccnc(NCCNS(=O)(=O)c3ccc(C(F)(F)F)cc3)c2)c1 | > 100 µM | 3.64 | > 100 µM | 3.04 | > 100 µM | 3.15 | > 100 µM | 5.77 | > 100 | 2.42 | 6.47 µM | 5.66 | > 100 µM | > 100 | 3.22 | 35 µM | > 100 µM | 3.4 | 4.62 | 2.61
O=C1C(=O)c2cc([N+](=O)[O-])ccc2-c2ccccc21 | 2.96 µM | 1.67 | 3.21 µM | 1.8 | 3.59 µM | 1.64 | 3.15 µM | 1.78 | 3.27 | 1.55 | 3.05 µM | 1.73 | 3.11 µM | 3 | 1.7 | 3.13 µM | 2.86 µM | 1.6 | 1.6 | 1.45
CCCCCCCCCCCCCOC(=O)c1c(C)[nH]c(/C=C2\N=C(c3ccc[nH]3)C=C2OC)c1C | 12.5 µM | 0.0336 | – | 0.0262 | – | < 0.0314 | – | 1.02 | > 57.4 | 0.0294 | 0.157 µM | 0.994 | > 52.6 µM | > 87.6 | 0.0329 | 0.139 µM | 0.443 µM | 0.139 | 5.37 | 0.103
Nc1nc(N)c2nc(CNc3ccc(C(=O)CC(CCC(=O)O)C(=O)O)cc3)cnc2n1 (stereo unspecified) | > 100 µM | 0.0412 | > 100 µM | 0.168 | > 100 µM | > 100 | > 100 µM | 1.07 | > 100 | > 100 | > 100 µM | > 50.7 | > 100 µM | > 100 | 0.374 | > 100 µM | > 100 µM | 0.162 | 0.627 | 0.168
O=C(O)C1C2C=CC(O2)C1C(=O)Nc1ccccc1 (stereo unspecified) | > 100 µM | – | > 100 µM | – | > 100 µM | – | > 100 µM | – | > 100 | – | > 100 µM | – | > 100 µM | > 100 | – | > 100 µM | > 100 µM | – | – | –
CC1=CC2=C(OCO1)C(=O)c1ccccc1C2=O | 18.6 µM | – | > 94 µM | – | 51.6 µM | – | 22.4 µM | – | 30.2 | – | 2.23 µM | – | 10.3 µM | 34 | – | 9.89 µM | 28.7 µM | – | – | –
CC1(C)SC2C(C(=O)O)N=C(Cc3ccccc3)N2C1C(=O)O (stereo unspecified) | > 100 µM | – | > 100 µM | – | > 100 µM | – | > 100 µM | – | 51.3 | – | > 100 µM | – | > 100 µM | > 100 | – | > 100 µM | 39.5 µM | – | – | –
COc1cc2[nH]c(C(=O)c3cc(OC)c(OC)c(OC)c3)c(N)c2cc1C#CCO | > 100 µM | 0.537 | > 100 µM | 0.432 | > 100 µM | 0.629 | > 100 µM | 0.752 | > 100 | 0.485 | > 100 µM | 0.896 | > 100 µM | > 100 | 7.56 | > 100 µM | 59 µM | 0.515 | 0.41 | 0.476
Cc1cc(Cl)ccc1Nc1sc(C(=O)c2cc3cc(Cl)ccc3o2)c(N)c1C#N | 98.1 µM | – | > 100 µM | – | > 100 µM | – | > 55 µM | – | > 100 | – | > 100 µM | – | > 100 µM | 25.1 | – | > 100 µM | > 100 µM | – | – | –
CN1CCN(C(=O)c2ccc(NC(=O)Nc3ccc(N(C)c4ccnc(Nc5ccc(CS(C)(=O)=O)cc5)n4)cc3)cc2)CC1 | > 25 µM | > 25 | > 25 µM | > 25 | > 25 µM | > 23.8 | > 25 µM | 6.79 | > 25 | > 12.7 | > 25 µM | > 25 | > 25 µM | > 25 | 9.99 | > 25 µM | > 25 µM | > 25 | 12.7 | > 25
Cc1cc(N(CCOS(C)(=O)=O)CCOS(C)(=O)=O)ccc1C=Nc1ccc(-c2csc(-c3ccccc3)n2)c(Cl)c1 | 22.2 µM | – | 1.32 µM | – | 36.1 µM | – | 50.9 µM | – | 45.2 | – | 50.5 µM | – | > 62.4 µM | > 61.1 | – | 20.6 µM | 29.7 µM | – | – | –
CS(=O)(=O)CCNCc1ccc(-c2ccc3ncnc(Nc4ccc(OCc5ccccc5)c(C(F)(F)F)c4)c3c2)o1 | > 25 µM | 7.09 | > 25 µM | 4.65 | 10.2 µM | 4.55 | 8.66 µM | 7.75 | > 25 | 5.68 | 11.4 µM | 4.43 | 8.83 µM | 9.37 | 4.76 | 8.66 µM | 17.2 µM | 7.32 | 4.79 | 5.25
C[C@H](c1ccc(Cl)cc1N)N1C(=O)c2cc(I)ccc2N(CCCN2CCN(C)CC2)C(=O)[C@@H]1c1ccc(Cl)cc1 | 2.5 µM | 1.3 | 2.81 µM | 1.68 | 3.2 µM | 1.53 | 2.97 µM | 1.33 | 2.86 | 1.81 | 3.37 µM | 1.69 | 3.08 µM | 2.9 | 1.23 | 2.54 µM | 1.9 µM | 1.22 | 1.52 | 0.359
CCCCCCCCCCCCCCCCC1=CC(=O)C=C(OC)C1=O | > 100 µM | – | > 100 µM | – | > 100 µM | – | > 100 µM | – | > 100 | – | > 100 µM | – | > 100 µM | > 100 | – | > 100 µM | > 100 µM | – | – | –
C=C(C)C(=O)NC(N)=NC#N | 271 µM | – | 44.7 µM and 82.9 µM | 103 | 243 µM | 161 | 301 µM | – | 330 | 134 | 261 µM | 75 | > 56.9 µM and 205 µM | 330 | 87 | > 81.7 µM and 230 µM | > 92.1 µM and 265 µM | 68 | – | 134
O=C(O)C(=O)Cc1ccc2c(c1)OCO2 | > 100 µM | – | > 100 µM | – | > 100 µM | – | > 100 µM | – | > 100 | – | > 100 µM | – | > 100 µM | > 100 | – | > 100 µM | > 100 µM | – | – | –
COc1ccc(-c2coc3ncnc(N)c23)cc1 | > 25 µM | > 25 | > 25 µM | > 25 | > 25 µM | > 25 | > 25 µM | > 25 | > 25 | > 25 | > 25 µM | > 25 | > 25 µM | > 25 | > 25 | > 25 µM | > 25 µM | > 25 | > 25 | > 25
